Laboratory results: PubChem BioAssay AID248 (DTP/NCI, 2004)
Values joined by “and” are separate entries in the source; they are usually repeats but may differ in a detail not shown here. Identical values can stand only once. Inconclusive results and toxic doses are left out. Cut-off read from the data, not from the text of the source: active = T/C of 150% or more; inactive = T/C below 125%.

Tested on: L1210 leukemia ip in BDF1 mice, survival T/C
Assay: NCI In Vivo Anticancer Drug Screen. Data for tumor model L1210 Leukemia (intraperitoneal) in B6D2F1 (BDF1) mice
Conditions: endpoint: mean survival time, higher = longer survival
In short: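 Read-out is survival time, reported as the treated-group measurement over the vehicle-control measurement.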

[1] = dose: 12.5 mg/kg/injection, schedule: Q01DX009 (ip), vehicle: saline with Tween-80
[2] = dose: 25.0 mg/kg/injection, schedule: Q01DX009 (ip), vehicle: saline with Tween-80
[3] = dose: 100.0 mg/kg/injection, schedule: Q01DX001 (ip), vehicle: carboxymethylcellulose (CMC)
[4] = dose: 100.0 mg/kg/injection, schedule: Q04DX003 (ip), vehicle: saline with Tween-80
[5] = dose: 200.0 mg/kg/injection, schedule: Q01DX001 (ip), vehicle: carboxymethylcellulose (CMC)
[6] = dose: 400.0 mg/kg/injection, schedule: Q01DX001 (ip), vehicle: carboxymethylcellulose (CMC)
[7] = dose: 100.0 mg/kg/injection, schedule: Q04DX002 (ip), vehicle: saline with Tween-80
[8] = dose: 200.0 mg/kg/injection, schedule: Q04DX002 (ip), vehicle: saline with Tween-80
[9] = dose: 400.0 mg/kg/injection, schedule: Q04DX002 (ip), vehicle: saline with Tween-80
[10] = dose: 400.0 mg/kg/injection, schedule: Q01DX009 (ip), vehicle: saline with Tween-80
[11] = dose: 100.0 mg/kg/injection, schedule: Q01DX009 (ip), vehicle: Klucel (hydroxypropylcellulose) (HPC)
[12] = dose: 100.0 mg/kg/injection, schedule: Q04DX003 (ip), vehicle: Klucel (hydroxypropylcellulose) (HPC)
[13] = dose: 200.0 mg/kg/injection, schedule: Q01DX009 (ip), vehicle: Klucel (hydroxypropylcellulose) (HPC)
[14] = dose: 200.0 mg/kg/injection, schedule: Q04DX003 (ip), vehicle: Klucel (hydroxypropylcellulose) (HPC)
[15] = dose: 400.0 mg/kg/injection, schedule: Q01DX009 (ip), vehicle: Klucel (hydroxypropylcellulose) (HPC)
[16] = dose: 400.0 mg/kg/injection, schedule: Q04DX003 (ip), vehicle: Klucel (hydroxypropylcellulose) (HPC)

Measured: T/C

N#CCc1ccc(-c2ccccc2)cc1
inactive: [1] 103 % of control | [2] 95 % of control | dose: 50.0 mg/kg/injection, schedule: Q01DX009 (ip), vehicle: saline with Tween-80 94 % of control | dose: 50.0 mg/kg/injection, schedule: Q04DX003 (ip), vehicle: saline with Tween-80 97 % of control | [3] 100 % of control | [4] 93 % of control | [5] 100 % of control | [6] 93 % of control

N#C/C([S-])=C(/[S-])C#N.N#C/C([S-])=C(/[S-])C#N.[Co].c1ccc([P+](c2ccccc2)(c2ccccc2)c2ccccc2)cc1
inactive: dose: 75.0 mg/kg/injection, schedule: Q01DX009 (ip), vehicle: Klucel (hydroxypropylcellulose) (HPC) 121 % of control | dose: 75.0 mg/kg/injection, schedule: Q04DX003 (ip), vehicle: saline 100 % of control | dose: 150.0 mg/kg/injection, schedule: Q01DX009 (ip), vehicle: Klucel (hydroxypropylcellulose) (HPC) 110 % of control | dose: 150.0 mg/kg/injection, schedule: Q04DX003 (ip), vehicle: saline 110 % of control | dose: 300.0 mg/kg/injection, schedule: Q01DX009 (ip), vehicle: Klucel (hydroxypropylcellulose) (HPC) 103 % of control | dose: 300.0 mg/kg/injection, schedule: Q04DX003 (ip), vehicle: saline 98 % of control

O=C(Nc1ccc(F)cc1)OCC1CCCO1 (centres undefined)
inactive: [3] 100 % of control | dose: 100.0 mg/kg/injection, schedule: Q01DX009 (ip), vehicle: carboxymethylcellulose (CMC) 102 % of control and 103 % of control | dose: 100.0 mg/kg/injection, schedule: Q04DX002 (ip), vehicle: carboxymethylcellulose (CMC) 100 % of control and 102 % of control | [5] 103 % of control | dose: 200.0 mg/kg/injection, schedule: Q01DX009 (ip), vehicle: carboxymethylcellulose (CMC) 92 % of control and 97 % of control | dose: 200.0 mg/kg/injection, schedule: Q04DX002 (ip), vehicle: carboxymethylcellulose (CMC) 95 % of control and 98 % of control | [6] 92 % of control | dose: 400.0 mg/kg/injection, schedule: Q01DX009 (ip), vehicle: carboxymethylcellulose (CMC) 96 % of control and 102 % of control | dose: 400.0 mg/kg/injection, schedule: Q04DX002 (ip), vehicle: carboxymethylcellulose (CMC) 92 % of control and 96 % of control

CC(=N\N)/C(C)=N/N
inactive: dose: 6.25 mg/kg/injection, schedule: Q01DX009 (ip), vehicle: saline with Tween-80 102 % of control | [1] 100 % of control | [2] 107 % of control

CCOP(=O)(OCC)C(c1ccccc1)(c1ccccc1)c1ccccc1
inactive: [7] 90 % of control | [8] 90 % of control | [9] 90 % of control

CCO/C=C1\SC(=S)N(c2cccc(OC)c2)C1=O
inactive: dose: 117.0 mg/kg/injection, schedule: Q01DX009 (ip), vehicle: saline with Tween-80 116 % of control | dose: 176.0 mg/kg/injection, schedule: Q01DX009 (ip), vehicle: saline with Tween-80 108 % of control | dose: 264.0 mg/kg/injection, schedule: Q01DX009 (ip), vehicle: saline with Tween-80 121 % of control | [10] 117 % of control

CCOC(=O)C1C(=O)C(CN(CCCl)CCCl)C(=O)C(C(=O)OCC)C1c1ccc(O)cc1 (centres undefined)
inactive: [11] 113 % of control | [12] 106 % of control | [13] 112 % of control | [14] 110 % of control | [15] 110 % of control | [16] 114 % of control

Cc1ccc([N+](=O)[O-])cc1NC(=O)Nc1cc(Cl)ccc1O
inactive: [11] 93 % of control | [13] 96 % of control | [15] 95 % of control

CCCCCCC(C)O[Si](C)c1ccc(OC)cc1 (centres undefined)
inactive: dose: 100.0 mg/kg/injection, schedule: Q01DX009 (ip), vehicle: saline with Tween-80 107 % of control | [4] 98 % of control | dose: 200.0 mg/kg/injection, schedule: Q01DX009 (ip), vehicle: saline with Tween-80 105 % of control | dose: 200.0 mg/kg/injection, schedule: Q04DX003 (ip), vehicle: saline with Tween-80 101 % of control | [10] 98 % of control | dose: 400.0 mg/kg/injection, schedule: Q04DX003 (ip), vehicle: saline with Tween-80 102 % of control

Cc1cc(=S)n(C)c2ccccc12
inactive: [3] 89 % of control | [5] 89 % of control | [6] 96 % of control

CC(=O)OCc1ccc(/C=N/N2C(=O)CSC2=S)o1
inactive: dose: 75.0 mg/kg/injection, schedule: Q01DX001 (ip), vehicle: carboxymethylcellulose (CMC) 105 % of control | dose: 150.0 mg/kg/injection, schedule: Q01DX001 (ip), vehicle: carboxymethylcellulose (CMC) 100 % of control | dose: 300.0 mg/kg/injection, schedule: Q01DX001 (ip), vehicle: carboxymethylcellulose (CMC) 97 % of control

O=C1c2cccc3cc([N+](=O)[O-])cc(c23)C(=O)N1C(Cc1ccccc1)c1ccccc1 (centres undefined)
inactive: [7] 103 % of control | [8] 95 % of control | [9] 103 % of control

CC(O)c1cccc(NC(=O)Nc2ccc(Cl)c(Cl)c2)c1 (centres undefined)
inactive: [11] 96 % of control | [13] 98 % of control | [15] 96 % of control

N#CSc1ccc(S(N)(=O)=O)cc1
inactive: dose: 6.25 mg/kg/injection, schedule: Q01DX009 (ip), vehicle: Klucel (hydroxypropylcellulose) (HPC) 94 % of control | dose: 12.5 mg/kg/injection, schedule: Q01DX009 (ip), vehicle: Klucel (hydroxypropylcellulose) (HPC) 92 % of control | dose: 12.5 mg/kg/injection, schedule: Q04DX003 (ip), vehicle: Klucel (hydroxypropylcellulose) (HPC) 100 % of control | dose: 25.0 mg/kg/injection, schedule: Q01DX009 (ip), vehicle: Klucel (hydroxypropylcellulose) (HPC) 106 % of control | dose: 25.0 mg/kg/injection, schedule: Q04DX003 (ip), vehicle: Klucel (hydroxypropylcellulose) (HPC) 105 % of control

CCOC(=O)c1ccc(C(=O)OCC)c(Cl)n1
inactive: [11] 97 % of control | [12] 105 % of control | [13] 95 % of control | [14] 97 % of control | [15] 97 % of control | [16] 102 % of control

CC(=O)N(c1ccncc1)c1ccc(NC(=O)c2ccc(N3C(=O)c4ccccc4C3=O)cc2[N+](=O)[O-])cc1
inactive: dose: 25.0 mg/kg/injection, schedule: Q04DX002 (ip), vehicle: saline with Tween-80 93 % of control and 102 % of control | [9] 96 % of control and 88 % of control

CC(C)CCCC(C)C1CCC2C3CC4C(F)(F)C45CC4(CCC5(C)C3CCC12C)OCCO4 (centres undefined)
inactive: dose: 100.0 mg/kg/injection, schedule: Q04DX002 (ip), vehicle: other 101 % of control | dose: 200.0 mg/kg/injection, schedule: Q04DX002 (ip), vehicle: other 90 % of control | dose: 400.0 mg/kg/injection, schedule: Q04DX002 (ip), vehicle: other 93 % of control

COc1ccc2c(c1)CCc1cnoc1-2
inactive: [12] 93 % of control | [14] 95 % of control | [16] 95 % of control
